Source: patent publication US9587266B2, “Mutant luciferases” (University of Massachusetts, priority 2011, dated 2017)

Assays:
R218K luciferase = molecular target: T1, R218K luciferase (Photinus pyralis, UniProt P08659, R218K); assay: Small molecule luciferase inhibition assay; type: biochemical; conditions: inhibitor 2 or 20 μM, enzyme titration
T1 construct: The full firefly (Photinus pyralis) luciferase gene was PCR amplified from pGL3 (Promega); GST (N, cleaved yes); made in house; host or cells: E. coli JM109
T1 sequence (P08659 whole entry R218K): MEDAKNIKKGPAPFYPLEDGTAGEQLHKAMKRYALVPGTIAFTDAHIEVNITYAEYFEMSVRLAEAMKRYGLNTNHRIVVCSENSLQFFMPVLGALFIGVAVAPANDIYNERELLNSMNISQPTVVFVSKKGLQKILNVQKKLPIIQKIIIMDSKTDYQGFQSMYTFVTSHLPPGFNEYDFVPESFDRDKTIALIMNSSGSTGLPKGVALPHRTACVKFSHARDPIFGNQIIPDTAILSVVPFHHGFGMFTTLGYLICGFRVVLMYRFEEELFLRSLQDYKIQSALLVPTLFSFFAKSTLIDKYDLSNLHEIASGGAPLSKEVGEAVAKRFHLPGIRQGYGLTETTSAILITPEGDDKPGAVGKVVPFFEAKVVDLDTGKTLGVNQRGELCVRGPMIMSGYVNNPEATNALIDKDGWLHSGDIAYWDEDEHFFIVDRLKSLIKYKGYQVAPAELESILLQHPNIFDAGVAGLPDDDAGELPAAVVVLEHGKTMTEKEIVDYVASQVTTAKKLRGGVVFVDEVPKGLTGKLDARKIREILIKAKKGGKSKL
Method: Enzyme titration assays were performed under the same conditions, using 0 μM, 2 or 20 μM of the luciferase inhibitor 2-(4-methoxyphenyl)benzothiazole, a constant final luciferin substrate concentration of 20 μM, and serial 2-fold dilutions of luciferase concentration from 20 nM down to 0.01 nM.

WT luciferase = molecular target: T2, WT luciferase (Photinus pyralis, UniProt P08659); type: biochemical; conditions: WT luciferase treated with D-luciferin; inhibitor 2 or 20 μM, enzyme titration
T2 construct: The full firefly (Photinus pyralis) luciferase gene was PCR amplified from pGL3 (Promega); GST (N, cleaved yes); made in house; host or cells: E. coli JM109
T2 sequence (P08659 whole entry): as the sequence (P08659 whole entry R218K) above, with K218R counted along it
Method: Luminescence assays in 96-well plates were initiated by adding 30 μL 2× luciferin substrate in 20 mM Tris pH 7.4, 0.1 mM EDTA, 8 mM MgSO4, 4 mM ATP, and 1 mM TCEP to 30 μL of 20 nM purified luciferase in 20 mM Tris pH 7.4, 0.1 mM EDTA, 1 mM TCEP and 0.4 mg/mL BSA. Substrate titration assays were performed 3 minutes post-substrate addition in a Turner Veritas luminometer with final substrate concentrations ranging from 0.122-250 μM in the presence of 0 μM, 1 μM, or 10 μM of the luciferase inhibitor 2-(4-methoxyphenyl)benzothiazole. Enzyme titration assays were performed under the same conditions, using 0 μM, 2 or 20 μM of the luciferase inhibitor 2-(4-methoxyphenyl)benzothiazole, a constant final luciferin substrate concentration of 20 μM, and serial 2-fold dilutions of luciferase concentration from 20 nM down to 0.01 nM.

COc1ccc(-c2nc3ccccc3s2)cc1 [2-(4-methoxyphenyl)-benzothiazole, 2-(4-methoxyphenyl)benzothiazole]
effect of luciferase inhibitor on light output (R218K luciferase; R218K luciferase treated with D-luciferin): strongly inhibited
effect of luciferase inhibitor on light output (R218K luciferase; R218K luciferase with CycLuc2 as substrate): largely unaffected
effect of luciferase inhibitor on light output (WT luciferase): strongly inhibited
